According to patent US10206890B2, “Pharmaceutical combination” (priority 2008, dated 2019):
Several values for one entry are separate records, joined by “and”; a condition that tells them apart may be missing. Equal values may be shown once. Where a name gives a salt, the structure may show the parent alone. Read-outs that look alike come from different tables or passages of the source.

What was measured:
[1] = test system: male Sprague-Dawley rats with ligated left L5/L6 spinal nerves (tactile allodynia); assay: In vivo experiments according to Chung (spinal nerve ligation, tactile allodynia, electronic von Frey; isobolographic analysis); parameters: species or system rat; details: for contra-lateral paw withdrawal threshold, anti-nociceptive effect: 10 mg/kg i.v.; for ED50 (95% confidence interval), anti-allodynic efficacy, single substance / efficacy, increase in the withdrawal threshold of the ipsi-lateral hind paw: i.v.; for ED50 (95% confidence interval), anti-allodynic efficacy, single substance: calculated from peak effect vs. control values at 30 min after administration; for efficacy, increase in the withdrawal threshold of the ipsi-lateral hind paw: maximal efficacy over the doses tested (combination: highest dose 1 mg/kg+2.5 mg/kg), peak effect 30 min after administration
From the text: The weight ratios of components (a) and (b) that will lead to a supra-additive effect/synergistic effect of the inventive compositions may be determined in the test of Kim & Chung as described in Kim S H, Chung J M. An experimental model for peripheral mononeuropathy produced by segmental spinal nerve ligation in the rat. Pain 1992; 50: 355-63. Said reference is hereby incorporated by reference and forms part of the disclosure.
Ligatures were applied to the left L5/L6 spinal nerves of male Sprague-Dawley rats (140-160 g body weight, Janvier, Genest St. Isle, France). […] Three to four weeks after the operation the tactile allodynia threshold baseline (withdrawal threshold) was measured on the ipsilateral and contralateral hind paw by an electronic von Frey anaesthesiometer (Somedic, Schweden). After test and measurement of the baseline, (1R,2R)-3-(3-dimethylamino-1-ethyl-2-methyl-propyl)-phenol hydrochloride (hereinafter referred to as tapentadol hydrochloride or tapentadol-HCl), (S)-pregabalin as well as the inventive combination of tapentadol-HCl and (S)-pregabalin were each dissolved in 0.9% NaCl solution and injected by the intravenous (i.v.) route (application volume 5 ml/kg). Animals were randomly assigned to groups of 10 for each test dose and vehicle (0.9% NaCl solution) and tactile withdrawal thresholds were tested 0.5 h before administration and on several time points (0.5, 1 and 3 hours) after intravenous administration. Ipsi- and contralateral hindpaws were tested. The median of the withdrawal threshold for each animal at a given time is calculated from five individual stimulations with the electronic von Frey filament. Withdrawal thresholds of the injured paws are expressed as % MPE (Maximum possible effect) comparing predrug threshold of Chung-Animals (=0% MPE) and control threshold of sham-animals (100% MPE). A cut-off is set at 100% MPE. The effect of each compound and vehicle is calculated for each testing time point as interindividual % MPE value.
Data (anti-allodynic efficacy (% MPE), ipsi-lateral, paw withdrawal threshold (g), ipsi- and conralateral) were analysed by means of a two-factor analysis of variance (ANOVA) with repeated measures. In case of a significant treatment effect, post hoc analysis with Bonferroni adjustment was performed. Results were considered statistically significant if P<0.05.

[2] = test system: rats with tightly ligated L5, L6 spinal nerves (tactile allodynia); assay: b) In vivo experiments according to Chung (anti-allodynic testing, single dose combinations vs sum of single effects); parameters: species or system rat; details: 30 min, ± SEM
From the text: The left L5 and L6 spinal nerves were exposed by removing a small piece of the paravertebral muscle and a part of the left spinous process of the L5 lumbar vertebra. The L5 and L6 spinal nerves were then carefully isolated and tightly ligated with silk (NC-silk black, USP 5/0, metric 1, Braun Melsungen AG, Melsungen, FRG). After checking hemostasis, the muscle and the adjacent fascia were closed with sutures and the skin was closed with sutures.
After operation, animals were allowed to recover for one week. Animals develop tactile allodynia which is stable for at least five weeks. For the assessment of tactile allodynia the rats were placed on a metal mesh covered with a plastic dome and were allowed to habituate until the exploratory behaviour diminished. Threshold for tactile allodynia was measured with an electronic von Frey anesthesiometer (Somedic, Sweden). Animals randomly assigned to groups of 10 for each test dose and vehicle, were tested 0.5 h before administration and on several time points after administration. The median of the withdrawal threshold for each animal at a given time is calculated from five individual stimulations with the electronic von Frey filament. Withdrawal thresholds of the injured paws are expressed as % maximal possible effect (% MPE) comparing predrug threshold of Chung-animals (=0% MPE) and control threshold of sham-animals (=100% MPE). A cut-off is set at 100% MPE. The effect of each compound and vehicle is calculated for each testing time point (e.g. 0.5, 1, 3 h post administration) as interindividual % MPE value (±SEM). Anti-allodynic efficacy is defined as increase of ipsi-lateral withdrawal threshold without effect on contra-lateral withdrawal threshold. Ten animals have been used in each group.
Effects of drug combinations are compared to the theoretical sum of the effects of each drug tested alone.

[3] = test system: inflamed rat hind paw (carrageenan); assay: c) In vivo experiments according to Randall-Selitto (carrageenan inflammatory pain, mechanical nociceptive threshold; isobolographic analysis; details: peak effect 15 min p. appl., interval in brackets; for ED50: Rattus norvegicus, 0.25 h
Procedure: The weight ratios of the components (a) and (b) that will lead to a supra-additive effect (synergistic effect) of the inventive pharmaceutical composition may be determined via the test of Randall and Selitto as described in Arch. Int. Pharmacodyn., 1957, 111, 409 to 419, which is a model for inflammatory pain. The respective part of the literature is hereby incorporated by reference and forms part of the present disclosure.
Acute inflammation is induced by an intraplantar injection of 0.1 ml of a carrageenan solution (0.5% in distilled water) into one hind paw. The mechanical nociceptive threshold is measured 4 hours after carrageenan injection using an Algesiometer (Ugo Basile, Italy). The device generates a mechanical force with a linear increase over time. The force is applied to the dorsal surface of the inflamed rat hind paw via a cone-shaped stylus with a rounded tip (2 mm tip diameter). The nociceptive threshold is defined as the force (in grams) at which the rat vocalises (cut-off force 250 g). The mechanical nociceptive threshold is measured at different timepoints after the drug or vehicle administration. The antinociceptive and antihyperalgesic activity of the tested substance is expressed as percentages of the maximal possible effect (% MPE). The group size is n=10.
The interactions studies presented herein were performed using equieffective doses of the two components, calculated from the ratio of the respective ED50 values of the components if administered alone.
The route of administration was intravenous (i.v.) for Tapentadol hydrochloride (A) and intraperitoneal (i.p.) for the anticonvulsants (antiepileptics) Lamotrigine, Lacosamide, Levetiracetam and Retigabine dihydrochloride. […] According to their respective timepoint of peak effect, A was applied 15 min and the anticonvulsant component 15 min before timepoint of measurement of the interaction-experiments (i. e. both components were applied simultaneously). Thus, the time point of ED50 calculation of the combination corresponds to the timepoint of the peak effect of the respective compound.

[4] = ip, read-out: ED50 of the anticonvulsant applied alone, i.p.
[5] = ip, i.p., read-out: ED50 of the anticonvulsant applied alone

## CC(C)C[C@H](CN)CC(=O)O [(S)-pregabalin]
[1]
  contra-lateral paw withdrawal threshold, anti-nociceptive effect: significant anti-nociceptive effects
  ED50 (95% confidence interval), anti-allodynic efficacy, single substance: 4.20 (3.37-5.43) mg/kg i.v.
  efficacy, increase in the withdrawal threshold of the ipsi-lateral hind paw: 67 % MPE

## NCC1(CC(=O)O)CCCCC1 [Gabapentin]
[2]; single substance 10 mg/kg iv (20 min before Tapentadol hydrochloride time point)
  Effect % MPE (time after administration of Tapentadol hydrochloride): 3 ± 3% (30 min) % MPE

## COC[C@@H](NC(C)=O)C(=O)NCc1ccccc1 [Lacosamide]
[2]; single substance 3 mg/kg iv
  Effect % MPE (time after administration of Tapentadol hydrochloride): 24 ± 4% (30 min) % MPE
[3]; [4]
  ED50: 35.9 mg/kg

## Nc1nnc(-c2cccc(Cl)c2Cl)c(N)n1 [Lamotrigine]
[3]; [5]
  ED50: 35.3 mg/kg
[3]; i.p.
  ED50 of the anticonvulsant applied alone: 35.25 mg/kg

## CC[C@@H](C(N)=O)N1CCCC1=O [Levetiracetam]
[2]; single substance 20 mg/kg iv
  Effect % MPE (time after administration of Tapentadol hydrochloride): 16 ± 4% (30 min) % MPE
[3]; [5]
  ED50: 986 mg/kg

## CCOC(=O)Nc1ccc(NCc2ccc(F)cc2)cc1N [Retigabine dihydrochloride]
[3]; [4]
  ED50: 5.09 mg/kg

## CC[C@@H](c1cccc(O)c1)[C@@H](C)CN(C)C [Tapentadol hydrochloride, (1R,2R)-3-(3-dimethylamino-1-ethyl-2-methyl-propyl)-phenol hydrochloride]
[1]
  contra-lateral paw withdrawal threshold, anti-nociceptive effect: significant anti-nociceptive effects
  ED50 (95% confidence interval), anti-allodynic efficacy, single substance: 1.65 (1.20-2.35) mg/kg i.v.
  efficacy, increase in the withdrawal threshold of the ipsi-lateral hind paw: 94 % MPE
[2]; single substance 1 mg/kg iv, hydrochloride
  Effect % MPE (time after administration of Tapentadol hydrochloride): 18 ± 4% (30 min) % MPE and 13 ± 5% (30 min) % MPE
[3]; iv, read-out: ED50 of A (Tapentadol hydrochloride) applied alone, i.v.
  ED50: 1.75 mg/kg
[3]; i.v., listed as A, hydrochloride
  ED50 of A (Tapentadol hydrochloride) applied alone: 1.747 mg/kg and 1.749 mg/kg

## CC1(C)O[C@@H]2[C@@H](CO[C@@]3(COS(N)(=O)=O)OC(C)(C)O[C@@H]23)O1 [Topiramate]
[2]; single substance 1 mg/kg iv
  Effect % MPE (time after administration of Tapentadol hydrochloride): 22 ± 3% (30 min) % MPE
